# Patent US20250262152A1, “DEVICES, SYSTEMS, KITS, AND METHODS FOR DRUG DELIVERY TO THE SPINAL CORD” (Ohio State Innovation Foundation, priority 2022, published 2025)
# Assay: proof-of-principle fluorescence tracer study: delivery to the spinal cord with dumbbell-shaped dual chamber stentgraft and histamine portal
# Type: in vivo
# Protocol: As a proof-of-principle study, we evaluated this strategy by using a dumbbell-shaped dual chamber stentgraft to deliver a fluorescent tracer (fluorescein dye) to the spinal cord. In this fluorescence tracer study, delivery of the tracer to the spinal cord using the dumbbell stentgraft was performed using a histamine portal (see FIGS. 3A-3C and FIG. 5). The dual chamber stent was used to deliver a “pulse” of histamine specifically to the spinal cord region of interest to create a “portal” in the BBB (i.e., a local increase in BBB permeability).
# Dual chamber, retrievable stent graft: Stents were laser cut from the shape memory alloy, nitinol, and thermally shapeset into a dumbbell shape. The scaffold was affixed to a permanently attached delivery/retrieval wire, encapsulated in the polymer polytetrafluoroethelene (Zeus, Inc) with a perfusion cannula to the outer chamber and compressed into a sheath for endovascular delivery.
smiles,measurement,setting,value
O=C1OC2(c3ccc(O)cc3Oc3cc(O)ccc32)c2ccccc21 [fluorescein],staining of spinal cord cross sections viewed under UV Woods lamp,"histamine pulse followed by tracer delivered to outer chamber of dual chamber stentgraft, FIG. 3C",successful staining of the entirety of the spinal cord
same,delivery of fluorescein to the spinal cord,"local administration in combination with portal agent (histamine) as compared to intravascular tracer injection alone, FIG. 5",much higher
